How the values were obtained:
HL-60(TB) = assay: NCI-60 anticancer screening (SRB); assay type: cell-based; conditions: Homo sapiens, leukemia, one dose 10 μM, read-out: Growth Inhibition Percentage (GI %)
K-562 = assay: NCI-60 anticancer screening (SRB); assay type: cell-based; conditions: Homo sapiens, K562; K-562, leukemia; one dose 10 μM; read-out: Growth Inhibition Percentage (GI %)
MOLT-4 = assay: NCI-60 anticancer screening (SRB); assay type: cell-based; conditions: Homo sapiens; MOLT-4, leukemia; one dose 10 μM; read-out: Growth Inhibition Percentage (GI %)
HOP-62 = assay: NCI-60 anticancer screening (SRB); assay type: cell-based; conditions: Homo sapiens; HOP-62, NSC lung cancer; one dose 10 μM; read-out: Growth Inhibition Percentage (GI %)
NCI-H460 = assay: NCI-60 anticancer screening (SRB); assay type: cell-based; conditions: Homo sapiens; NCI-H460, NSC lung cancer; one dose 10 μM; read-out: Growth Inhibition Percentage (GI %)
NCI-H522 = assay: NCI-60 anticancer screening (SRB); assay type: cell-based; conditions: Homo sapiens; NCI-H522, NSC lung cancer; one dose 10 μM; read-out: Growth Inhibition Percentage (GI %)
COLO 205 = assay: NCI-60 anticancer screening (SRB); assay type: cell-based; conditions: Homo sapiens; COLO 205, colon cancer; one dose 10 μM; read-out: Growth Inhibition Percentage (GI %)
HCT-116 = assay: NCI-60 anticancer screening (SRB); assay type: cell-based; conditions: Homo sapiens; HCT-116, colon cancer; one dose 10 μM; read-out: Growth Inhibition Percentage (GI %)
HCT-15 = assay: NCI-60 anticancer screening (SRB); assay type: cell-based; conditions: Homo sapiens; HCT-15, colon cancer; one dose 10 μM; read-out: Growth Inhibition Percentage (GI %)
HT29 = assay: NCI-60 anticancer screening (SRB); assay type: cell-based; conditions: Homo sapiens, HT-29; HT29, colon cancer; one dose 10 μM; read-out: Growth Inhibition Percentage (GI %)
SF-268 = assay: NCI-60 anticancer screening (SRB); assay type: cell-based; conditions: Homo sapiens; SF-268, CNS cancer; one dose 10 μM; read-out: Growth Inhibition Percentage (GI %)
SF-295 = assay: NCI-60 anticancer screening (SRB); assay type: cell-based; conditions: Homo sapiens; SF-295, CNS cancer; one dose 10 μM; read-out: Growth Inhibition Percentage (GI %)
SF-539 = assay: NCI-60 anticancer screening (SRB); assay type: cell-based; conditions: Homo sapiens; SF-539, CNS cancer; one dose 10 μM; read-out: Growth Inhibition Percentage (GI %)
M14 = assay: NCI-60 anticancer screening (SRB); assay type: cell-based; conditions: Homo sapiens; M14, melanoma; one dose 10 μM; read-out: Growth Inhibition Percentage (GI %)
MDA-MB-435 = assay: NCI-60 anticancer screening (SRB); assay type: cell-based; conditions: Homo sapiens; MDA-MB-435, melanoma; one dose 10 μM; read-out: Growth Inhibition Percentage (GI %)
UACC-257 = assay: NCI-60 anticancer screening (SRB); assay type: cell-based; conditions: Homo sapiens; UACC-257, melanoma; one dose 10 μM; read-out: Growth Inhibition Percentage (GI %)
UACC-62 = assay: NCI-60 anticancer screening (SRB); assay type: cell-based; conditions: Homo sapiens; UACC-62, melanoma; one dose 10 μM; read-out: Growth Inhibition Percentage (GI %)
IGROV1 = assay: NCI-60 anticancer screening (SRB); assay type: cell-based; conditions: Homo sapiens, IGROV-1; IGROV1, ovarian cancer; one dose 10 μM; read-out: Growth Inhibition Percentage (GI %)
OVCAR-8 = assay: NCI-60 anticancer screening (SRB); assay type: cell-based; conditions: Homo sapiens; OVCAR-8, ovarian cancer; one dose 10 μM; read-out: Growth Inhibition Percentage (GI %)
NCI/ADR-RES = assay: NCI-60 anticancer screening (SRB); assay type: cell-based; conditions: Homo sapiens, ovarian cancer, one dose 10 μM, read-out: Growth Inhibition Percentage (GI %)
RXF 393 = assay: NCI-60 anticancer screening (SRB); assay type: cell-based; conditions: Homo sapiens; RXF 393, renal cancer; one dose 10 μM; read-out: Growth Inhibition Percentage (GI %)
UO-31 = assay: NCI-60 anticancer screening (SRB); assay type: cell-based; conditions: Homo sapiens; UO-31, renal cancer; one dose 10 μM; read-out: Growth Inhibition Percentage (GI %)
PC-3 = assay: NCI-60 anticancer screening (SRB); assay type: cell-based; conditions: Homo sapiens; PC-3, prostate cancer; one dose 10 μM; read-out: Growth Inhibition Percentage (GI %)
DU-145 = assay: NCI-60 anticancer screening (SRB); assay type: cell-based; conditions: Homo sapiens; DU-145, prostate cancer; one dose 10 μM; read-out: Growth Inhibition Percentage (GI %)
MCF7 = assay: NCI-60 anticancer screening (SRB); assay type: cell-based; conditions: Homo sapiens; MCF7, breast cancer; one dose 10 μM; read-out: Growth Inhibition Percentage (GI %)
HS 578T = assay: NCI-60 anticancer screening (SRB); assay type: cell-based; conditions: Homo sapiens; HS 578T, breast cancer; one dose 10 μM; read-out: Growth Inhibition Percentage (GI %)
NCI 60 cancer cell lines = assay: NCI-60 anticancer screening (SRB), whole panel; assay type: cell-based, human; conditions: mean across the NCI-60 panel; one dose 10 μM

Compound	inhibition at 10 µM (HL-60(TB)) [%]	inhibition at 10 µM (K-562) [%]	inhibition at 10 µM (MOLT-4) [%]	inhibition at 10 µM (HOP-62) [%]	inhibition at 10 µM (NCI-H460) [%]	inhibition at 10 µM (NCI-H522) [%]	inhibition at 10 µM (COLO 205) [%]	inhibition at 10 µM (HCT-116) [%]	inhibition at 10 µM (HCT-15) [%]	inhibition at 10 µM (HT29) [%]	inhibition at 10 µM (SF-268) [%]	inhibition at 10 µM (SF-295) [%]	inhibition at 10 µM (SF-539) [%]	inhibition at 10 µM (M14) [%]	inhibition at 10 µM (MDA-MB-435) [%]	inhibition at 10 µM (UACC-257) [%]	inhibition at 10 µM (UACC-62) [%]	inhibition at 10 µM (IGROV1) [%]	inhibition at 10 µM (OVCAR-8) [%]	inhibition at 10 µM (NCI/ADR-RES) [%]	also measured
CCOC(=O)C1=C(N)N(c2ccc(C)cc2)C2=C(C(=O)CC(C)(C)C2)C1c1cccnc1 (racemic) [12e, (±)-Ethyl 2-amino-7,7-dimethyl-1–(4-methylphenyl)-5-oxo-1-phenyl-4-(pyrdin-3-yl)-1,4,5,6,7,8-hexahydroquinoline-3-carboxylate]	< 10	< 10	< 10	< 10	< 10	< 10	< 10	< 10	< 10	< 10	< 10	< 10	< 10	< 10	< 10	< 10	14	< 10	< 10	< 10	inhibition at 10 µM (RXF 393): < 10%; inhibition at 10 µM (UO-31): 23%; inhibition at 10 µM (PC-3): 12%; inhibition at 10 µM (DU-145): < 10%; inhibition at 10 µM (MCF7): < 10%; inhibition at 10 µM (HS 578T): < 10%; GI % mean (NCI 60 cancer cell lines): - ((-) = GI % mean less than 10); melting point: 261 to 263 °C
CCOC(=O)C1=C(N)N(c2ccccc2)C2=C(C(=O)CC(C)(C)C2)C1c1ccc(N2CCOCC2)cc1 (racemic) [8l, (±)-Ethyl 2-amino-7,7-dimethyl-4-[4-(morpholin-4-yl)phenyl]-5-oxo-1-phenyl-1,4,5,6,7,8-hexahydroquinoline-3-carboxylate]	< 10	< 10	< 10	< 10	< 10	11	< 10	< 10	< 10	< 10	< 10	< 10	< 10	< 10	< 10	< 10	17	< 10	< 10	< 10	inhibition at 10 µM (RXF 393): < 10%; inhibition at 10 µM (UO-31): < 10%; inhibition at 10 µM (PC-3): < 10%; inhibition at 10 µM (DU-145): < 10%; inhibition at 10 µM (MCF7): < 10%; inhibition at 10 µM (HS 578T): < 10%; GI % mean (NCI 60 cancer cell lines): - ((-) = GI % mean less than 10); melting point: 193 to 195 °C
CCOC(=O)C1=C(N)N(c2ccccc2)C2=C(C(=O)CC(C)(C)C2)C1c1ccc(OC)cc1 (racemic) [8f, (±)-Ethyl2-amino-4–(4-methoxyphenyl)-7,7-dimethyl-5-oxo-1-phenyl-1,4,5,6,7,8-hexahydroquinoline-3-carboxylate]	< 10	< 10	14	< 10	< 10	< 10	< 10	14	< 10	< 10	< 10	< 10	< 10	< 10	< 10	< 10	< 10	< 10	< 10	< 10	inhibition at 10 µM (RXF 393): < 10%; inhibition at 10 µM (UO-31): < 10%; inhibition at 10 µM (PC-3): 18%; inhibition at 10 µM (DU-145): < 10%; inhibition at 10 µM (MCF7): 13%; inhibition at 10 µM (HS 578T): 12%; GI % mean (NCI 60 cancer cell lines): - ((-) = GI % mean less than 10); melting point: 169 to 171 °C
CCOC(=O)C1=C(N)N(c2ccc(Cl)cc2)C2=C(C(=O)CC(C)(C)C2)C1c1ccc([N+](=O)[O-])cc1 (racemic) [8k, (±)-Ethyl2-amino-1–(4-chlorophenyl)-7,7-dimethyl-4–(4-nitrophenyl)-5-oxo-1,4,5,6,7,8-hexahydroquinoline-3-carboxylate]	22	26	27	< 10	< 10	27	< 10	34	18	< 10	< 10	< 10	< 10	< 10	< 10	< 10	29	< 10	12	16	inhibition at 10 µM (RXF 393): < 10%; inhibition at 10 µM (UO-31): 32%; inhibition at 10 µM (PC-3): 26%; inhibition at 10 µM (DU-145): < 10%; inhibition at 10 µM (MCF7): 19%; inhibition at 10 µM (HS 578T): < 10%; GI % mean (NCI 60 cancer cell lines): - ((-) = GI % mean less than 10); melting point: 198 to 200 °C

Reference: PMC10408569, “Recruitment of hexahydroquinoline as anticancer scaffold targeting inhibition of wild and mutants EGFR (EGFR^WT, EGFR^T790M, and EGFR^L858R)” (Journal of Enzyme Inhibition and Medicinal Chemistry, 2023)
